These results are taken from patent US10358458B2, “4′-vinyl substituted nucleoside derivatives as inhibitors of respiratory syncytial virus RNA replication” (Riboscience LLC, priority 2014, dated 2019).

The structures appear in SMILES notation.

The target of the experiment is T1, RSV polymerase (Human respiratory syncytial virus A, UniProt P28887).
T1 construct: RSV polymerase was obtained from RSV infected A549 cells; endogenous in cells; host or cells: RSV infected A549 cells (virus-encoded polymerase, detergent preparation)
T1 sequence (P28887 whole entry): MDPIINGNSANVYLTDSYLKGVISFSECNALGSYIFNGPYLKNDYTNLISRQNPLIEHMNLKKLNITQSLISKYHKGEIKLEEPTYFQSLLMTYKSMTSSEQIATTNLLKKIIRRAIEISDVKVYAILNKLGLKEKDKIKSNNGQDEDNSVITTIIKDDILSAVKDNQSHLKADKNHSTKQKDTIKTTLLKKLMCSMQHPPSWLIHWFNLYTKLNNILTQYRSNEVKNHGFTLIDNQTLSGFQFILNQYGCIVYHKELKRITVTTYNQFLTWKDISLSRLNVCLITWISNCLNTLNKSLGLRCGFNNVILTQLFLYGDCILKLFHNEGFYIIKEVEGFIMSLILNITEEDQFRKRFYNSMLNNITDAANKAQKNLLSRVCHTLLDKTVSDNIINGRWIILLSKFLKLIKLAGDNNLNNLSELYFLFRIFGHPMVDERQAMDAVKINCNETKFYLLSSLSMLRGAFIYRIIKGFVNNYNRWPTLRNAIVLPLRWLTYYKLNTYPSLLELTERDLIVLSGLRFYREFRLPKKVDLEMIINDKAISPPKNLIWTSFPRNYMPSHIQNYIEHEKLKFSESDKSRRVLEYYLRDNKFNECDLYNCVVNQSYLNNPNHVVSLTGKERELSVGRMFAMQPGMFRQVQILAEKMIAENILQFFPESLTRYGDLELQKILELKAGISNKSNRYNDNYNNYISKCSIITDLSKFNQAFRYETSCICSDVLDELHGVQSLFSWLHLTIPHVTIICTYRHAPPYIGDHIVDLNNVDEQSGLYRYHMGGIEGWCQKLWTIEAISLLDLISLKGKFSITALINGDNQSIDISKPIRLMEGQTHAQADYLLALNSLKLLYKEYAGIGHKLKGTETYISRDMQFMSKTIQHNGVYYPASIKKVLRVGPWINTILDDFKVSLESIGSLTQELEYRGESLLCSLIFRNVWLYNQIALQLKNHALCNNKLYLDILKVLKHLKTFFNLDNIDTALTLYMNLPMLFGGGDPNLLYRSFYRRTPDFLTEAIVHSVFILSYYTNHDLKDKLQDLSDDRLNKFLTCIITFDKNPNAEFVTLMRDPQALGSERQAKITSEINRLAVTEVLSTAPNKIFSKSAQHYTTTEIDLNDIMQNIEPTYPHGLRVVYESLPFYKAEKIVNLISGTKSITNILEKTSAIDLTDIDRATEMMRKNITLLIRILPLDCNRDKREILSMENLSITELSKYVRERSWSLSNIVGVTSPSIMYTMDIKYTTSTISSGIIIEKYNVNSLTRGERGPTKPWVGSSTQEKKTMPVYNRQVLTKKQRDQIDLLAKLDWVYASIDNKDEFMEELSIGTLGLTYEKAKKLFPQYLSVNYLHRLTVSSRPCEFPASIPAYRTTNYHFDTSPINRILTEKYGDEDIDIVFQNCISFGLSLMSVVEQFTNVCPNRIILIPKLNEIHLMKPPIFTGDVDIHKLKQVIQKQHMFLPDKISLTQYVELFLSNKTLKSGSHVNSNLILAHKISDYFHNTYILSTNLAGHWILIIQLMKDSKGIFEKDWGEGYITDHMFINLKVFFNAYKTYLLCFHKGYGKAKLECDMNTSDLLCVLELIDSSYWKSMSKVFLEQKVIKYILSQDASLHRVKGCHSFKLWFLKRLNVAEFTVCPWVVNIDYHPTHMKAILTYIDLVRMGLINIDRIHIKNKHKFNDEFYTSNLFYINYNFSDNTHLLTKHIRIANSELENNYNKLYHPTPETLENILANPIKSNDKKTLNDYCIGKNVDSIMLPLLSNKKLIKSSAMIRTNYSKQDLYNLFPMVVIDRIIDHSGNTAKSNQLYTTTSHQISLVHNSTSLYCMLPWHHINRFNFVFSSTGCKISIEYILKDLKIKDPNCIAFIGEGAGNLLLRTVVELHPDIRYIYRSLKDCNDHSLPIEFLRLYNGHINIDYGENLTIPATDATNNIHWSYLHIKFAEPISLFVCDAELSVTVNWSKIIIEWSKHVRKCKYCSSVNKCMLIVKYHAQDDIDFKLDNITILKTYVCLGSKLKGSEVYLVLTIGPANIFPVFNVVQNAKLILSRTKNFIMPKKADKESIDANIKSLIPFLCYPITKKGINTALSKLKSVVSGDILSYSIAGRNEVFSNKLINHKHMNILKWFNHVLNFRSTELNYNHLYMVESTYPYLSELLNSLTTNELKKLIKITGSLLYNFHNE
T1 sequence (P03421 whole entry, further chain): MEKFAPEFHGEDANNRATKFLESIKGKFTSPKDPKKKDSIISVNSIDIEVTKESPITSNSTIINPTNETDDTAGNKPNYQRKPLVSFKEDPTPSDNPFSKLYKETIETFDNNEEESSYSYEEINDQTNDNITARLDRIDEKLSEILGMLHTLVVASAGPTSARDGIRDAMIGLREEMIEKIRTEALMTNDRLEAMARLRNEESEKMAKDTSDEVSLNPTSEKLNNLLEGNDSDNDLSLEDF
Briefly: RSV polymerase assay (inhibition of RNA synthesis by RSV polymerase). In kind it is biochemical. As to conditions: nucleoside triphosphate analogs; RSV polymerase from RSV infected A549 cells; 33P-CTP incorporation into nascent RSV RNA. As to the method:
The RSV polymerase assay measures the ability of the nucleoside triphosphates derived from compounds of formula I to inhibit the RSV polymerase. RSV polymerase was obtained from RSV infected A549 cells. RSV polymerase activity was measured using RSV polymerase preparation (stored in 10 mM Tris-acetate (pH 8), 10 mM K-acetate, 1.5 mM MgCl2, 0.5% deoxycholate and 1% Tween-40) in the a buffer containing 50 mM Tris-HCL, pH8, 100 mM KCl, 5 mM MgCl2, 1 mM DTT and 0.2 mg/ml BSA in the presence of 50 μM ATP, GTP and UTP, 1 μM CTP and 3.5 μCi ^33P-labeled CTP (10 mCi/mL). The amount of nucleotides incorporated into nascent RSV RNA was determined TCA precipitation and scintillation counting.
The polymerase and replication activities of RSV were measured in the presence and absence of different concentrations of compounds to determine the degree of inhibition by the compounds.
The compound concentration at which the enzyme-catalyzed rate is reduced by 50% (IC50) was calculated by fitting the data to equation (1),
[formula] where “Y” corresponds to the relative enzyme activity (in %), “% Min” is the residual relative activity at saturating compound concentration, “% Max” is the relative maximum enzymatic activity, X corresponds to the compound concentration, and “S” is the Hill coefficient (or slope).
As usually defined, the IC50 is the concentration at which inhibition is half-maximal. Compound `C=C[C@]1(COP(=O)(O)OP(=O)(O)OP(=O)(O)O)O[C@@H](n2cnc3c(N)ncnc32)[C@H](O)[C@@H]1O` [II-3] displayed an IC50 of under 1000 nM.

Compound `C=C[C@]1(COP(=O)(O)OP(=O)(O)OP(=O)(O)O)O[C@@H](n2ccc(N)nc2=O)[C@H](O)[C@@H]1O` [II-2] gave an IC50 of under 1000 nM. For `C=C[C@]1(COP(=O)(O)OP(=O)(O)OP(=O)(O)O)O[C@@H](n2ccc(=O)[nH]c2=O)[C@H](O)[C@@H]1O` [II-1] the value was under 1000 nM.
